# Measurements reported in US20070196395A1, “Immunomodulatory compounds that target and inhibit the py'binding site of tyrosene kinase p56 lck sh2 domain” (priority 2003, published 2007).
# Molecular target: SH2 domain of p56 Lck (Homo sapiens, UniProt P06239)
# Assay: Inhibition of binding of the CD3ζ ITAM2 peptide to the SH2 domain of p56 Lck (affinity precipitation from Jurkat cell lysate, immunoblot)
# Details: 100 μM; decreased blot intensity vs control
# Protocol: In vitro Assay for the Inhibition of Binding of the CD3ζ ITAM2 Peptide to the SH2 Domain of p56 Lck. […] Inhibition of binding was assayed by affinity precipitation of p56Lck in cell lysates as follows.
# Confluent cells were harvested, washed 3 times in chilled, sterile phosphate buffered saline (PBS, BioSource), and were resuspended (5×10^5 /ml) in lysis buffer containing 1% Triton X-100 (Fisher), 1 mM EDTA (Fisher), 0.2 mM sodium orthovanadate, 500 μM AEBSF, 150 nM aprotinin, 1 μM E-64, 0.5 mM EDTA, and 1 μM leupeptin (Protease Cocktail Set I, Calbiochem, San Diego, Calif.). The suspension was sonicated on ice at 60 W power (VibraCell, Sonics and Materials, Danbury, Conn.) for 6×5 second bursts with a 1 minute cooling period between bursts. The resulting lysate was then centrifuged at 20,000 x g (RC-5B, Sorvall, Newtown, Conn.) at 4° C., and the supernatent was used in the assay.
# Putative inhibitors to be tested were freshly dissolved in dimethyl sulfoxide (DMSO, cell culture grade, Sigrna) at a concentration of 10 mM before the assay and 10 μl of this was added to 1 ml of cell lysate in 1.5 ml tubes (Sarstedt, Newton, North Carolina). The tubes were placed on an end-over-end rotator (Model C400110, Barnstead/Thermolyne, Dubuque, Iowa) at 4° C. and allowed to rotate for 30 minutes. 20 μl of a 50% slurry of the ITAM-conjugated agarose beads (in PBS; EM Science, Gibbstown, New Jersey) was then added to each tube, and tubes were rotated overnight.
# The beads were washed 3 times in 800 μl lysis buffer. Excess lysis buffer was aspirated off, and 10 ml sample loading buffer containing 3% β-mercaptoethanol (Fisher) was added to the beads and, after brief vortexing and soiication, tubes were immersed in a boiling water bath for 2 minutes. They were then centrifuged and the supernatent was loaded onto 8% Tris-HCl gels (GeneMate, ISC Bioexpress, Kaysville, Utah) and run at 100 V for 1.5 hours in a Protean III Mini Gel Unit (Bio-Rad, Hercules, Calif.). The gels were transferred onto polyvinylidene fluoride membrane (Immobilon-P, Millipore, Bedford, Mass.) in a Mini Trans-Blot Electrophoretic Transfer Cell ,(Bio-Rad). The membrane was blocked with PBS (EM Science) solution containing 5% powdered milk (Nestle, Solon, Ohio) for 1 hour; exposed to primary antibody (anti-lck, rabbit polyclonal IgG, Upstate Biotechnologies, Lake Placid, N.Y.) at 1:5000 dilution in 1% w/v powdered milk (Nestle, Solon, Ohio) in PBST [PBS containing 0.5% v/v Tween 20 (Sigma, St. Louis, Mo.)] and washed 3 times for 5 minutes each in PBST. […]
# Chain of SH2 domain of p56 Lck (P06239 whole entry, the tested form may be a part): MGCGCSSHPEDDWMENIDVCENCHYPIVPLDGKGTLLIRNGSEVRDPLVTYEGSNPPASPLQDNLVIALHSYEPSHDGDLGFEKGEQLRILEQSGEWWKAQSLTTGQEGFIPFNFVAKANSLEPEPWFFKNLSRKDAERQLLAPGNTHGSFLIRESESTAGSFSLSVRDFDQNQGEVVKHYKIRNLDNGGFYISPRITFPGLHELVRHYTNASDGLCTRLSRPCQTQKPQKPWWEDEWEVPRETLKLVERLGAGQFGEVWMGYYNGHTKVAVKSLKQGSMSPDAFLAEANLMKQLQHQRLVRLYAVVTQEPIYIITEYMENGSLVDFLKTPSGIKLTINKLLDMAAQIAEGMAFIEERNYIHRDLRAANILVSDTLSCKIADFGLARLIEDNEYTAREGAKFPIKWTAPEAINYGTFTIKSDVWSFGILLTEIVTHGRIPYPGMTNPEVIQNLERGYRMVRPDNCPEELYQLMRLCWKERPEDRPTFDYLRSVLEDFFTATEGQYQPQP
row,SMILES,inhibition of p56 Lck SH2 domain association with phosphotyrosine-containing ITAM2 peptide
1,O=C(O)CSc1nsc(SCC(=O)O)n1 [Compound 232],significant inhibitory activities
2,O=C(O)CC1S/C(=N\N=C2\CCCc3ccccc32)NC1=O (stereo not shown) [Compound 245],significant inhibitory activities
3,O=C(O)CSc1cccnc1Sc1ccc(Cl)cc1 [Compound 262],significant inhibitory activities
4,Nc1nnc(SCc2ccc(C(=O)O)cc2)s1 [Compound 239],significant inhibitory activities

# System: lymphocytes from two different strains of mice (B6 black and balb/c)
# Assay: Mixed lymphocyte culture, 3H-thymidine uptake
# Assay type: cell-based, mouse
# Details: 100 μM to 1 μM; biphasic = inhibition at 100 μM, activation at 1 μM
# Protocol: 100 mM solutions of compounds were prepared in DMSO.
# Mixed lymphocyte culture assays were performed where lymphocytes from two different strains of mice with different histocompatibility antigens were mixed. Due to the difference in the histocompatibility antigens, resting T cells from both strains of mice will undergo blast transformation and propagate. As in any T cell activation process, the activation of Lck is essential. Therefore, the modulation of activation of Lck can be quantified as the downstream modulation in the levels of ^3H-TdR incorporation into DNA. 24 out of the 34 identified compounds were tested […], with 13 compounds showing inhibitory activity at a 100 μM concentration (FIG. 2). Thus, over 50% of the compounds identified by the in vitro assay also show activity in the cellular functional assay at the conditions described herein. These compounds represent the most promising leads for further development. […] Such effects may be associated with the regulatory mechanism of p56 Lck.
# Another readout assay that is used to measure biological response is a mixed lymphocyte culture assay in which lymphocytes from two. different strains of mice with different histocompatibility antigens are mixed. Due to the difference in the histocompatibility antigens, resting T cells from both strains of mice undergo blast transformation and propagate. As in any T cell activation process, the activation of p56^lck is essential. Therefore, the modulation of p56^lck activity can be quantified as the downstream modulation in the levels of [^3H]-TdR incorporation into DNA.
# Lymph node or splenic lymphocytes are harvested from two different allogeneic strains of mice. Cells (1×10^6) from each strain are mixed in 96 well culture plates containing 200 μl of culture medium in the presence or absence of the compound (0.1˜100 μM) and cultured for 72 h. Six hours before harvest, 0.5 μCi of [^3H]-TdR is added to each well. […] Filters are washed with PBS and then with ethanol and [^3H]-TdR incorporated into DNA is measured using scintillation counting. […]
row,SMILES,activity profile in mixed lymphocyte culture assay across tested concentrations
1,COc1ccc(OC)c(NC(=O)CCNC(=O)Cn2cnc3ccccc3c2=O)c1 [Compound 139],Biphasic
2,N=C1S/C(=C/c2ccc(-c3cccc(C(=O)O)c3)o2)C(=O)N1c1ccc(F)cc1 [Compound 73],inhibition
3,Cc1ccc(NC(=O)c2cccc(NC(=O)c3ccccc3C(=O)O)c2)cc1C [Compound 99],Biphasic
